Laboratory results: patent US10702556B2, “Compositions and methods for inducing angiogenesis” (MINOVIA THERAPEUTICS LTD., priority 2012, dated 2020)

Test system: mouse aortic rings
Test: Mouse aortic ring sprouting (ex-vivo angiogenesis)
Format: cell-based
Description: Thoracic aorta were removed from female C57/BL mice and cut into 0.5 mm rings. Aortic rings were incubated in serum-free medium and either left untreated or treated with 0.5 μM Rotenone for 4 hours. To assess mitochondria effect on sprouting of aortic rings, half of the non-treated rings were washed and incubated with 25 μg of C57/BL mouse placental mitochondria in 2 ml serum-free medium. After 24 hours the rings were embedded in rat tail collagen, one ring per well in a 96 wells plate. After 8 days in culture the level of sprouting was evaluated by counting the number of vessels per ring.
The effect of VEGF, mitochondria and mitochondria+VEGF on sprouting of aortic rings in-vitro was examined Mouse aortic rings were prepared as described in example 7 and were either left un-treated (NT), treated with 25 μg mouse placental mitochondria in 2 ml OptiMem medium for 24 h (Mito), incubated in OptiMem medium containing 2.5% FBS and 30 ng/ml mouse VEGF for 48 h (VEGF) or treated with both mitochondria and VEGF (VEGF+Mito). The number of new blood vessels sprouting from the aortic rings was counted on day 8.
Mouse aortic rings were prepared as described in example 7 and were either left un-treated or treated with increasing amounts (2-350 μg) of mouse placental mitochondria in 2 ml OptiMem medium for 24 h. The number of new blood vessels sprouting from the aortic rings was counted on day 7.
The effect of mitochondria on the number of blood vessels was evaluated in a mouse aortic ring model. Mouse aortic rings were prepared as described in example 7 and were either left un-treated (Control), treated for 24 h with 25 μg of mouse placental mitochondria (Mito), treated with mitochondria that were inhibited by 2 μM of mitochondria complex I inhibitor Rotenone or treated with mitochondria that were inhibited with 5 μM of the ATP Synthase inhibitor Oligomycin for 24 h. The number of new blood vessels sprouting from the aortic rings was counted on day 8.

Compound	number of vessels per ring (sprouting) (0.5 μM Rotenone for 4 hours, 8 days in culture)	number of new blood vessels sprouting from the aortic rings, comparison between treated groups (25 μg mitochondria 24 h, 30 ng/ml mouse VEGF 48 h, or both, day 8)
C=C(C)[C@H]1Cc2c(ccc3c2O[C@@H]2COc4cc(OC)c(OC)cc4[C@@H]2C3=O)O1 [Rotenone]	blocked the sprouting almost completely	
VEGF		no significant difference
